Laboratory results reported in BindingDB's records for doi:10.1021/jm00350a009 (1982).

Assay: Compound was tested for inhibition of [3H]dihydroalprenolol radioligand binding to Beta-1 adrenergic receptor in dog heart.

Row | SMILES | IC50 [nM]
1 | CC(C)(C)NC[C@H](O)CON=C1c2ccccc2-c2ccccc21 | 29
2 | CC(C)(C)NC[C@@H](O)CON=C1c2ccccc2-c2ccccc21 | 43
3 | Cc1ccc(OCC(O)CNC(C)C)c2c1CCC2 (centres undefined) [1-Isopropylamino-3-(7-methyl-indan-4-yloxy)-propan-2-ol] | 186
4 | CC(C)(C)NCC(O)CON=C1c2ccccc2-c2ccccc21 (centres undefined) [Fluoren-9-one O-(3-tert-butylamino-2-hydroxy-propyl)-oxime] | 38
